{"source": "patent US20080107727A1", "about": "“Multiple Unit Oral Sustained Release Preparation and Production Method Thereof” (priority 2005, published 2008)", "experiment": "Gastrointestinal absorption of imidafenacin in rats, in-situ loop technique", "assay_type": "in vivo, Male Wistar rats", "conditions": "rat in-situ loop, 0.2 mL of 500 μg/mL isotonic solution, after 1 hour", "method": "In designing oral sustained release preparations of imidafenacin, it is necessary to know the absorption properties of imidafenacin in the gastrointestinal tract. We therefore examined the gastrointestinal absorption properties of imidafenacin in rats using the in-situ loop technique. The specific procedures were as follows: Male Wistar rats (aged 7 to 9 weeks) were dissected under anesthesia with pentobarbital sodium and the common bile duct was ligated. Loops were prepared from the stomach, duodenum, jejunum, ileum and colon. 0.2 mL each of an isotonic solution (500 μg/mL) of imidafenacin was injected into the loops in […]. After 1 hour, the lumen of the loops was washed sequentially with water and 0.01 mol/L hydrochloric acid and the wash was collected from each loop. The concentration of imidafenacin in the wash was determined by high performance liquid chromatography. The standard curve was determined by applying the least squares method to the ratio of the peak areas between the imidafenacin concentration for a similarly treated standard specimen and the concentration of internal standard of imidafenacin determined by chromatography. The concentration of imidafenacin in the wash for a specimen was determined by substituting the ratio of the peak area into the standard curve. The absorption of imidafenacin for each loop was calculated by the equations (1) and (2) below. The results are shown in FIG. 5. % Remaining imidafenacin in a loop=(Conc. of imidafenacin in the wash for the loop)×25 (1) % Absorption of imidafenacin in a loop=100-% Remaining imidafenacin in that loop (2)"}
{"smiles": "Cc1nccn1CCC(C(N)=O)(c1ccccc1)c1ccccc1", "note": "[imidafenacin, 4-(2-methyl-1-imidazolyl)-2,2-diphenylbutylamide]", "values": [{"measurement": "absorption of imidafenacin in colon loop", "result": "Some absorption"}, {"measurement": "absorption of imidafenacin in small intestine loops (duodenum, jejunum, ileum)", "result": "effectively absorbed"}, {"measurement": "absorption of imidafenacin in stomach loop", "result": "less significant"}]}
